Data from US4431665A, “Acylated laidlomycin derivatives” (priority 1980, dated 1984).
Where two headings read alike, the source gives them in different places.

Tests used:
[1] = test system: rumen microorganisms (mixed microbial population of rumen contents); experiment: Enhancement of intraruminal propionic acid production, batch culture fermentation of rumen contents; format: cell-based, bovine (rumen-fistulated); conditions: 9 h, 39° C.
Protocol: Enhancement of intraruminal propionic acid production is determined using a batch culture fermentation system. Rumen contents from a rumen-fistulated bovine are mixed with an equal amount of buffer which contains mineral, energy and nitrogen sources required for continued growth and metabolism of the mixed microbial population. Aliquots of this inoculum then are transferred to incubation vessels containing appropriate amounts of sodium laidlomycin (Na L.) (see Example 1A), and L. butyrate (L.C4) (prepared according to the procedure of Example 1A). After 9 hours of incubation at 39° C., concentrations of individual volatile fatty acids in each incubation vessel are determined by gas-liquid chromatography. The net production of each individual volatile fatty acid (acetic [AA], propionic [PA] and butyric [BA]) is calculated as the difference between the concentration after incubation and the concentration before incubation. The molar percentage of propionic acid produced is calculated from the following equation: [formula]
The comparative activities of sodium laidlomycin (Na L.) and the laidlomycin butyrate upon propionic acid and lactic acid production are set forth in Tables 1 and 2 where the concentration is in micrograms per ml (μg/ml).
(§1) The procedure of Example 2 was followed to compare laidlomycin (L.), sodium L. (Na L.), L.-propionate (L.C3), L. butyrate (L.C4), L. isobutyrate (L. isoC4), L. pentanoate (L.C5) and L. hexanoate (L.C6).
(§2) The procedure of Example 2 was followed to compare the activities of L. heptanoate (L. C7), L. octanoate (L. C8), L. decanoate (L. C10) and L. dodecanoate (L. C12) in increasing propionic acid production and inhibiting lactic acid production.
(§3) The procedure of Example 2 was followed to compare the activities of laidlomycin (L.) acetate (L. C2), L. pentanoate (L. C5), L. stearate (L. C18), L. cyclobutylcarboxylate, L. cyclopentylcarboxylate, L. cyclohexylcarboxylate and L. cyclopropylcarboxylate.

[2] = test system: rumen contents (lactic acid accumulation); experiment: Inhibition of lactic acid accumulation, second batch culture fermentation of rumen contents with glucose; format: cell-based, bovine (rumen fistulated); conditions: 6 h, 39° C.; for Lactic Acid Accumulation (μ mol/ml): Table 8, 0 μg/ml: 40.47; for activity at 1.25 µg/mL / activity at 5 µg/mL / activity at 20 µg/mL / activity at 0.31 µg/mL: Bos taurus; for Lactic Acid Accumulation: Table 6, 0 μg/ml: 36.65
Protocol: Inhibition of lactic acid accumulation is determined using a second batch culture fermentation system. Rumen contents from a rumen fistulated bovine are mixed with an equal amount of buffer which contains a 150 mM concentration of glucose. Following 6 hours of incubation at 39° C., lactic acid produced in the fermentation is analyzed by a specific enzymatic assay. The concentration of lactic acid in the fermentation broth is quantified by the increase in absorbance of light at […] when nicotinamide adenine dinucleotide is reduced by lactic acid with the aid of lactate dehydrogenase. […]
as §1, §2, §3

[3] = Table 7, 1.25 μg/ml, 0 μg/ml: 36.1
[4] = Table 7, 2.5 μg/ml, 0 μg/ml: 36.1
[5] = Table 7, 5 μg/ml, 0 μg/ml: 36.1
[6] = Table 7, 10 μg/ml, 0 μg/ml: 36.1
[7] = Table 7, 20 μg/ml, 0 μg/ml: 36.1
[8] = Table 7, .313 μg/ml, 0 μg/ml: 36.1
[9] = Table 7, .625 μg/ml, 0 μg/ml: 36.1
[10] = Table 3, 1.25 μg/ml, 0 μg/ml: 28.5
[11] = Table 3, 5 μg/ml, 0 μg/ml: 28.5
[12] = Table 3, 20 μg/ml, 0 μg/ml: 28.5
[13] = Table 3, .31 μg/ml, 0 μg/ml: 28.5
[14] = Table 5, 1.25 μg/ml, 0 μg/ml: 35.5
[15] = Table 5, 2.5 μg/ml, 0 μg/ml: 35.5
[16] = Table 5, 5 μg/ml, 0 μg/ml: 35.5
[17] = Table 5, 10 μg/ml, 0 μg/ml: 35.5
[18] = Table 5, 20 μg/ml, 0 μg/ml: 35.5
[19] = Table 5, .31 μg/ml, 0 μg/ml: 35.5
[20] = Table 5, .63 μg/ml, 0 μg/ml: 35.5

| Structure (SMILES) | % Propionic Acid [1, 3] [%] | % Propionic Acid [1, 4] [%] | % Propionic Acid [1, 5] [%] | % Propionic Acid [1, 6] [%] | % Propionic Acid [1, 7] [%] | % Propionic Acid [1, 8] [%] | % Propionic Acid [1, 9] [%] | Lactic Acid Accumulation (μ mol/ml) ([2]; 1.25 μg/ml) | Lactic Acid Accumulation (μ mol/ml) ([2]; 2.5 μg/ml) | Lactic Acid Accumulation (μ mol/ml) ([2]; 5 μg/ml) | Lactic Acid Accumulation (μ mol/ml) ([2]; 10 μg/ml) | Lactic Acid Accumulation (μ mol/ml) ([2]; 20 μg/ml) | Lactic Acid Accumulation (μ mol/ml) ([2]; .313 μg/ml) | Lactic Acid Accumulation (μ mol/ml) ([2]; .625 μg/ml) | other results |
| --- | --- | --- | --- | --- | --- | --- | --- | --- | --- | --- | --- | --- | --- | --- | --- |
| CCC(=O)OC(C(C)C(=O)O)C(C)C1OC2(CCC(C)(C3CCC(C)(C4OC(C5OC(O)(COC(C)=O)C(C)CC5C)CC4C)O3)O2)CC(O)C1C (stereo not shown) [L. C2] | 50.7 | 50.4 | 52.2 | 51.2 | 53.0 | 42.8 | 47.1 | 6.89 | 4.34 | 4.35 | 4.35 | 5.28 | 41.19 | 22.23 | – |
| CCC(=O)OCC1(O)OC(C2CC(C)C(C3(C)CCC(C4(C)CCC5(CC(O)C(C)C(C(C)C(OC(=O)CC)C(C)C(=O)O)O5)O4)O3)O2)C(C)CC1C (stereo not shown) [L. C3, laidlomycin propionate] | – | – | – | – | – | – | – | – | – | – | – | – | – | – | % Propionic Acid [1, 10]: 37.8%; % Propionic Acid [1, 11]: 41.9%; % Propionic Acid [1, 12]: 44.4%; % Propionic Acid [1, 13]: 32.9%; activity at 1.25 µg/mL ([2]; Table 4, 1.25 μg/ml, read-out: Accumulation of Lactic Acid - % of Control): 14%; activity at 5 µg/mL ([2]; Table 4, 5 μg/ml, read-out: Accumulation of Lactic Acid - % of Control): 13%; activity at 20 µg/mL ([2]; Table 4, 20 μg/ml, read-out: Accumulation of Lactic Acid - % of Control): 14%; activity at 0.31 µg/mL ([2]; Table 4, .31 μg/ml, read-out: Accumulation of Lactic Acid - % of Control): 71% |
| CCCCCCCCCCCCCCCCCC(=O)OCC1(O)OC(C2CC(C)C(C3(C)CCC(C4(C)CCC5(CC(O)C(C)C(C(C)C(OC(=O)CC)C(C)C(=O)O)O5)O4)O3)O2)C(C)CC1C (stereo not shown) [L. C18, laidlomycin stearate] | 40.0 | 41.6 | 44.6 | 45.5 | 45.8 | 37.1 | 37.6 | 48.87 | 52.51 | 46.20 | 37.83 | 29.93 | 50.29 | 52.57 | – |
| CCCCC(=O)OCC1(O)OC(C2CC(C)C(C3(C)CCC(C4(C)CCC5(CC(O)C(C)C(C(C)C(OC(=O)CC)C(C)C(=O)O)O5)O4)O3)O2)C(C)CC1C (stereo not shown) [L. C5, laidlomycin pentanoate] | 48.7 | 50.9 | 49.9 | 51.6 | 51.1 | 45.9 | 48.1 | 4.67 | 3.75 | 4.04 | 4.63 | 5.13 | 24.62 | 11.91 | % Propionic Acid [1, 10]: 33.9%; % Propionic Acid [1, 11]: 36.1%; % Propionic Acid [1, 12]: 39.7%; % Propionic Acid [1, 13]: 30.6%; activity at 1.25 µg/mL ([2]; read-out: Accumulation of Lactic Acid - % of Control, Table 4, 1.25 μg/ml): 54%; activity at 5 µg/mL ([2]; read-out: Accumulation of Lactic Acid - % of Control, Table 4, 5 μg/ml): 13%; activity at 20 µg/mL ([2]; read-out: Accumulation of Lactic Acid - % of Control, Table 4, 20 μg/ml): 11%; activity at 0.31 µg/mL ([2]; read-out: Accumulation of Lactic Acid - % of Control, Table 4, .31 μg/ml): 109% |
| CCC(=O)OC(C(C)C(=O)O)C(C)C1OC2(CCC(C)(C3CCC(C)(C4OC(C5OC(O)(COC(=O)C6CCC6)C(C)CC5C)CC4C)O3)O2)CC(O)C1C (stereo not shown) [Cyclobutylcarboxylate, laidlomycin cyclobutylcarboxylate] | 50.0 | 52.5 | 51.7 | 51.8 | 51.2 | 47.5 | 47.1 | 3.82 | 4.01 | 4.32 | 4.73 | 4.75 | 23.25 | 8.05 | – |
| CCCCCCCCCC(=O)OCC1(O)OC(C2CC(C)C(C3(C)CCC(C4(C)CCC5(CC(O)C(C)C(C(C)C(OC(=O)CC)C(C)C(=O)O)O5)O4)O3)O2)C(C)CC1C (stereo not shown) [L. C10, laidlomycin decanoate] | – | – | – | – | – | – | – | – | – | – | – | – | – | – | % Propionic Acid [1, 14]: 45.5%; % Propionic Acid [1, 15]: 47.1%; % Propionic Acid [1, 16]: 46.7%; % Propionic Acid [1, 17]: 46.6%; % Propionic Acid [1, 18]: 48.1%; % Propionic Acid [1, 19]: 39.9%; % Propionic Acid [1, 20]: 43.6%; Lactic Acid Accumulation ([2]; 1.25 μg/ml): 0.84 µmol/mL; Lactic Acid Accumulation ([2]; 2.5 μg/ml): 1.20 µmol/mL; Lactic Acid Accumulation ([2]; 5 μg/ml): 0.94 µmol/mL; Lactic Acid Accumulation ([2]; 10 μg/ml): 0.94 µmol/mL; Lactic Acid Accumulation ([2]; 20 μg/ml): 0.96 µmol/mL; Lactic Acid Accumulation ([2]; .31 μg/ml): 36.86 µmol/mL; Lactic Acid Accumulation ([2]; .63 μg/ml): 30.78 µmol/mL |
| CCCCCCC(=O)OCC1(O)OC(C2CC(C)C(C3(C)CCC(C4(C)CCC5(CC(O)C(C)C(C(C)C(OC(=O)CC)C(C)C(=O)O)O5)O4)O3)O2)C(C)CC1C (stereo not shown) [L. C7, laidlomycin heptanoate] | – | – | – | – | – | – | – | – | – | – | – | – | – | – | % Propionic Acid [1, 14]: 46.2%; % Propionic Acid [1, 15]: 46.9%; % Propionic Acid [1, 16]: 48.4%; % Propionic Acid [1, 17]: 48.1%; % Propionic Acid [1, 18]: 47.2%; % Propionic Acid [1, 19]: 41.4%; % Propionic Acid [1, 20]: 45.3%; Lactic Acid Accumulation ([2]; 1.25 μg/ml): 1.90 µmol/mL; Lactic Acid Accumulation ([2]; 2.5 μg/ml): 1.32 µmol/mL; Lactic Acid Accumulation ([2]; 5 μg/ml): 1.16 µmol/mL; Lactic Acid Accumulation ([2]; 10 μg/ml): 1.46 µmol/mL; Lactic Acid Accumulation ([2]; 20 μg/ml): 1.94 µmol/mL; Lactic Acid Accumulation ([2]; .31 μg/ml): 38.37 µmol/mL; Lactic Acid Accumulation ([2]; .63 μg/ml): 14.12 µmol/mL |
